Values joined by “and” are separate entries in the source; they are usually repeats but may differ in a detail not shown here. Identical values can stand only once.

One series has as its system Plasmodium falciparum (Pf) NF54 strain. Description: in vitro antiplasmodial assay, 3H-hypoxanthine incorporation, erythrocytic stages. As to conditions: Plasmodium falciparum, NF54, pure compounds, tested as mono- or bis-trifluoroacetates where marked; read-out: IC50 Pf (converted). It counts as cell-based. The procedure:
Plasmodium falciparum (Pf): Tests were performed against erythrocytic stages of the drug-sensitive NF54 strain. The NF54 strain was obtained from F. Hoffmann-La Roche Limited (Basel, Switzerland). The strain NF54 was originally derived from a patient living near Schiphol Airport, Amsterdam, who had never left the Netherlands. The assay was performed using a 3H-hypoxanthine incorporation assay. Serial compound dilutions were prepared with the medium as indicated above and then added in 96-well plates to parasite cultures incubated in the medium previously described, consisting of RPMI 1640 supplemented with 0.5% ALBUMAX® II, 25 mM Hepes, 25 mM NaHCO3 (pH 7.3), 0.36 mM hypoxanthine, and 100 μg/mL neomycin. The plates were incubated in a humidified atmosphere at 37 °C, 4% CO2, 3% O2, and 93% N2. After 48 h, 0.25 μCi of 3H-hypoxanthine was added to each well. Incubation was continued under identical conditions for a further 24 h. The plates were then harvested using a Betaplate™ cell harvester (Wallac, Zurich, Switzerland). The red blood cells were transferred onto a glass fiber filter and washed with distilled H2O. After drying, filters were inserted into a plastic foil with 10 mL of scintillation fluid and counted with a Betaplate™ liquid scintillation counter (Wallac, Zurich, Switzerland). Data were treated according to [44] (see below). The positive control was chloroquine.
(§1) Bioassay data and statistical methods: In all cases, the readout data were plotted in Microsoft Excel. Half-maximal inhibitory concentrations (IC50 values) were calculated from the sigmoidal dose-response curves by linear regression. Two independent replicates of the assay were performed in all cases, and the results were expressed as arithmetic mean ± deviation from the mean.
Take `CN[C@@H](C)[C@H]1CC[C@H]2[C@@H]3CC=C4C[C@@H](N(C)C)CC[C@]4(C)[C@H]3CC[C@]12C` [Compound 2, 5,6-Dehydro-desacyl-epipachysamine A]: the half-maximal inhibitory concentration (IC50) (in general, the midpoint of a concentration-inhibition curve) is 0.898 ± 0.002 µg/mL.
Still for that read-out and setting: in the case of `CN[C@@H](C)[C@H]1CC[C@H]2[C@@H]3CC[C@H]4C[C@@H](N(C)C)CC[C@]4(C)[C@H]3CC[C@]12C` [Compound 3, Desacyl-epipachysamine A] it was 0.85 ± 0.03 µg/mL; in that of `C[C@@H]([C@H]1CC[C@H]2[C@@H]3CC[C@H]4C[C@@H](NC(=O)c5cccnc5)CC[C@]4(C)[C@H]3CC[C@]12C)N(C)C` [Compound 4, Epipachysamine B], 2.3 ± 0.2 µg/mL.
Same read-out and setting: then `CN[C@@H]1CC[C@@]2(C)[C@@H](CC[C@@H]3[C@@H]2CC[C@]2(C)[C@@H]([C@H](C)N(C)C)CC[C@@H]32)C1` [Compound 8, Pachysamine A], with 1.82 ± 0.06 µg/mL.

The same series, now with this note: Plasmodium falciparum, NF54, values in brackets, calculated with the molecular masses of the corresponding salts; read-out: IC50 Pf (converted).
In the case of `CN[C@@H](C)[C@H]1CC[C@H]2[C@@H]3CC=C4C[C@@H](N(C)C)CC[C@]4(C)[C@H]3CC[C@]12C` [Compound 2, 5,6-Dehydro-desacyl-epipachysamine A], the IC50 is 1.53 µM.
The same measure, in the same setting: in the case of `CN[C@@H](C)[C@H]1CC[C@H]2[C@@H]3CC[C@H]4C[C@@H](N(C)C)CC[C@]4(C)[C@H]3CC[C@]12C` [Compound 3, Desacyl-epipachysamine A] it was 1.44 µM.
`C[C@@H]([C@H]1CC[C@H]2[C@@H]3CC[C@H]4C[C@@H](NC(=O)c5cccnc5)CC[C@]4(C)[C@H]3CC[C@]12C)N(C)C` [Compound 4, Epipachysamine B]: the IC50 is 3.4 µM.
In the case of `CN[C@@H]1CC[C@@]2(C)[C@@H](CC[C@@H]3[C@@H]2CC[C@]2(C)[C@@H]([C@H](C)N(C)C)CC[C@@H]32)C1` [Compound 8, Pachysamine A], the IC50 is 3.09 µM.

Still in this series, the particulars now being: Selectivity index IC50(Cytotox)/IC50(Pf); pure compounds.
With `CN[C@@H](C)[C@H]1CC[C@H]2[C@@H]3CC=C4C[C@@H](N(C)C)CC[C@]4(C)[C@H]3CC[C@]12C` [Compound 2, 5,6-Dehydro-desacyl-epipachysamine A], the “SI (Pf)” value is on record as 21.
Still for that read-out and setting: in the case of `CN[C@@H](C)[C@H]1CC[C@H]2[C@@H]3CC[C@H]4C[C@@H](N(C)C)CC[C@]4(C)[C@H]3CC[C@]12C` [Compound 3, Desacyl-epipachysamine A] it was 21; in that of `C[C@@H]([C@H]1CC[C@H]2[C@@H]3CC[C@H]4C[C@@H](NC(=O)c5cccnc5)CC[C@]4(C)[C@H]3CC[C@]12C)N(C)C` [Compound 4, Epipachysamine B], 2; in that of `CN[C@@H]1CC[C@@]2(C)[C@@H](CC[C@@H]3[C@@H]2CC[C@]2(C)[C@@H]([C@H](C)N(C)C)CC[C@@H]32)C1` [Compound 8, Pachysamine A], 6.

The test system of the next series is Trypanosoma brucei rhodesiense (Tbr) STIB900 strain. The series can be described thus: in vitro antitrypanosomal assay, bloodstream forms, resazurin. As to conditions: Selectivity index IC50(Cytotox)/IC50(Tbr); pure compounds. It counts as cell-based. The procedure: Trypanosoma brucei rhodesiense (Tbr): The STIB900 strain is a derivative of the STIB704 strain isolated from a patient in Ifakara, Tanzania, in 1982 [43]. The bloodstream forms were cultivated as axenic culture in HMI-9 medium, supplemented with 15% heat-inactivated horse serum. Cultures were maintained at 37 °C in an atmosphere of 5% CO2. Test compounds were dissolved in DMSO (10 mg/mL), and serial drug dilutions of eleven 3-fold dilution steps covering a range from 100 to 0.002 μg/mL were prepared in a 96-well plate. Bloodstream-form of T. b rhodesiense strain STIB900 (2 × 10^3/well) was added into the wells. After 68 h incubation, 10 μL of resazurin solution (12.5 mg resazurin in 100 mL 1xPBS) was added per well, and plates were incubated for an additional 4 h. Subsequently, the plates were read with a Spectramax Gemini EM microplate fluorometer (Molecular Devices, San Jose, CA, USA) using an excitation wavelength of 536 nm and an emission wavelength of 588 nm. Data were treated according to [44] (see below). Melarsoprol was used as a positive control.
as §1
In general terms: The colour change of resazurin is a common sign of viable cells or microbes.
With `CN[C@@H](C)[C@H]1CC[C@H]2[C@@H]3CC=C4C[C@@H](N(C)C)CC[C@]4(C)[C@H]3CC[C@]12C` [Compound 2, 5,6-Dehydro-desacyl-epipachysamine A], the “SI(Tbr)” value was found to be 10.
Same read-out and setting: in the case of `C[C@@H]([C@H]1CC[C@H]2[C@@H]3CC[C@H]4C[C@@H](NC(=O)c5cccnc5)CC[C@]4(C)[C@H]3CC[C@]12C)N(C)C` [Compound 4, Epipachysamine B] it was 3; in that of `CN[C@@H]1CC[C@@]2(C)[C@@H](CC[C@@H]3[C@@H]2CC[C@]2(C)[C@@H]([C@H](C)N(C)C)CC[C@@H]32)C1` [Compound 8, Pachysamine A], 13.

The same series, now with this note: Trypanosoma brucei, pure compounds, tested as mono- or bis-trifluoroacetates where marked; read-out: IC50 Tbr (converted).
For `CN[C@@H](C)[C@H]1CC[C@H]2[C@@H]3CC=C4C[C@@H](N(C)C)CC[C@]4(C)[C@H]3CC[C@]12C` [Compound 2, 5,6-Dehydro-desacyl-epipachysamine A], the IC50 was 1.9 ± 0.2 µg/mL.
On to `CN[C@@H](C)[C@H]1CC[C@H]2[C@@H]3CC[C@H]4C[C@@H](N(C)C)CC[C@]4(C)[C@H]3CC[C@]12C` [Compound 3, Desacyl-epipachysamine A], for which the IC50 was 2 ± 0.2 µg/mL.
Still for that read-out and setting: in the case of `C[C@@H]([C@H]1CC[C@H]2[C@@H]3CC[C@H]4C[C@@H](NC(=O)c5cccnc5)CC[C@]4(C)[C@H]3CC[C@]12C)N(C)C` [Compound 4, Epipachysamine B] it was 1.6 ± 0.5 µg/mL; in that of `CN[C@@H]1CC[C@@]2(C)[C@@H](CC[C@@H]3[C@@H]2CC[C@]2(C)[C@@H]([C@H](C)N(C)C)CC[C@@H]32)C1` [Compound 8, Pachysamine A], 0.8 ± 0.1 µg/mL.

Still in this series, the particulars now being: Trypanosoma brucei, values in brackets, calculated with the molecular masses of the corresponding salts; read-out: IC50 Tbr (converted).
For the molecule `CN[C@@H](C)[C@H]1CC[C@H]2[C@@H]3CC=C4C[C@@H](N(C)C)CC[C@]4(C)[C@H]3CC[C@]12C` [Compound 2, 5,6-Dehydro-desacyl-epipachysamine A], the concentration for half-maximal inhibition (IC50) was 3.2 µM.
On the same count and under the same terms, in the case of `CN[C@@H](C)[C@H]1CC[C@H]2[C@@H]3CC[C@H]4C[C@@H](N(C)C)CC[C@]4(C)[C@H]3CC[C@]12C` [Compound 3, Desacyl-epipachysamine A] it was 3.5 µM.
Still for that read-out and setting: in the case of `C[C@@H]([C@H]1CC[C@H]2[C@@H]3CC[C@H]4C[C@@H](NC(=O)c5cccnc5)CC[C@]4(C)[C@H]3CC[C@]12C)N(C)C` [Compound 4, Epipachysamine B] it was 2.4 µM; in that of `CN[C@@H]1CC[C@@]2(C)[C@@H](CC[C@@H]3[C@@H]2CC[C@]2(C)[C@@H]([C@H](C)N(C)C)CC[C@@H]32)C1` [Compound 8, Pachysamine A], 1.3 µM.

System in another series: not listed separately
The series can be described thus: cytotoxicity against L-6 rat skeletal myoblasts, resazurin. It counts as cell-based.
Settings: not given
On the procedure:
Cytotoxicity against L-6 rat skeletal myoblasts: The L6 rat skeletal myoblast cell line used for cytotoxicity tests was obtained from the American Type Culture Collection (ATCC, Manassas, VA, USA) as ATCC-CRL-1458 [50]. The cells were cultivated in RPMI 1640 medium supplemented with 1% L-glutamine (200mM) and 10% fetal bovine serum. Cultures were maintained at 37 °C in an atmosphere of 5% CO2. Assays were performed in 96-well plates, each well containing RPMI 1640 medium supplemented with 1% L-glutamine (200 mM), 10% fetal bovine serum, and 2 × 10^3 L-6 cells/well. Plates were incubated at 37 °C under a 5% CO2 atmosphere for 24 h. Compounds were dissolved in DMSO (10 mg/mL). After 24 h, serial drug dilutions of eleven 3-fold dilution steps covering a range from 100 to 0.002 μg/mL were prepared, and the plates were incubated at 37 °C under 5% CO2 for 70 h. After 70 h incubation, 10 μL of resazurin solution (12.5 mg resazurin in 100 mL 1xPBS) was added per well, and plates were incubated for an additional 2 h. After that, the plates were read with a Spectramax Gemini EM microplate fluorometer (Molecular Devices, San Jose, CA, USA) using an excitation wavelength of 536 nm and an emission wavelength of 588 nm. Data were treated according to [44] (see below). Podophyllotoxin served as a positive control.
as §1
Turning to `CN[C@@H](C)[C@H]1CC[C@H]2[C@@H]3CC=C4C[C@@H](N(C)C)CC[C@]4(C)[C@H]3CC[C@]12C` [Compound 2, 5,6-Dehydro-desacyl-epipachysamine A], the IC50 at 70 h is 19 µg/mL and 33 µM.
For `CN[C@@H](C)[C@H]1CC[C@H]2[C@@H]3CC[C@H]4C[C@@H](N(C)C)CC[C@]4(C)[C@H]3CC[C@]12C` [Compound 3, Desacyl-epipachysamine A], the IC50 at 70 h was 18 µg/mL and 30 µM.
`C[C@@H]([C@H]1CC[C@H]2[C@@H]3CC[C@H]4C[C@@H](NC(=O)c5cccnc5)CC[C@]4(C)[C@H]3CC[C@]12C)N(C)C` [Compound 4, Epipachysamine B]: the IC50 at 70 h was 5.2 µg/mL and 7.7 µM.
Same read-out and setting: in the case of `CN[C@@H]1CC[C@@]2(C)[C@@H](CC[C@@H]3[C@@H]2CC[C@]2(C)[C@@H]([C@H](C)N(C)C)CC[C@@H]32)C1` [Compound 8, Pachysamine A] it was 10.4 µg/mL and 17.7 µM.

Values taken from article PMC11902257, “Antiprotozoal Aminosteroids from Pachysandra terminalis” (Molecules, 2025).
